Laboratory results as given in US20030186967A1, “Acylresorcinol derivatives are selective vitronectin receptor inhibitors” (American Home Products Corporation, priority 1998, published 2003).

biological target: T1, Vitronectin receptor αVβ3 (Homo sapiens, UniProt P05106+P06756); assay: Vitronectin Receptor αVβ3 Binding Assay; conditions: read-out: VnR (IC50μM)
T1 construct: expressed in transfected cells; host or cells: 512P5 cells (plasma membrane preparation)
T1 sequence (P06756 31-889 limits assumed): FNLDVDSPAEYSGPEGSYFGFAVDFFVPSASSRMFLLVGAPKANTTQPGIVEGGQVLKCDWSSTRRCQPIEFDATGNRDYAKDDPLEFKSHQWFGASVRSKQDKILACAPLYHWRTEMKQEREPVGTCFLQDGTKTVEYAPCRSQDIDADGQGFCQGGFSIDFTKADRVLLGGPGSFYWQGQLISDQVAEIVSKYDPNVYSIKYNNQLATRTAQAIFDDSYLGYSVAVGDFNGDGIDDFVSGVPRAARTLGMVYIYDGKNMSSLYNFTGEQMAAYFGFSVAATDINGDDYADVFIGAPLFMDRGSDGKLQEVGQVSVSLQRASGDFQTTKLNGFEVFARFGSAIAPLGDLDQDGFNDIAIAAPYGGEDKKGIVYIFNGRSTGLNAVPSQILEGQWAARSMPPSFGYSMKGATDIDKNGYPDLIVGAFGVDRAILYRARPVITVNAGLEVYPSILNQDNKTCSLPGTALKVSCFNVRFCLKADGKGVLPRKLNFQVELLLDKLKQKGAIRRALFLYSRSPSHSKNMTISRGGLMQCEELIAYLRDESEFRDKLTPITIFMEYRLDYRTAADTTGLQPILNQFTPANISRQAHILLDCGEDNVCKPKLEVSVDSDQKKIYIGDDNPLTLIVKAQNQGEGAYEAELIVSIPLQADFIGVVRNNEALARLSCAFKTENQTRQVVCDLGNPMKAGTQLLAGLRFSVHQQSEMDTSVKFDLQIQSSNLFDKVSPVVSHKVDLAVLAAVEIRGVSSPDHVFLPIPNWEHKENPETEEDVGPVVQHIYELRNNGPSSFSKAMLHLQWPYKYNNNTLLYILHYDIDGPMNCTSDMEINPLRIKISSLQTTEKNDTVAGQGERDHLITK
T1 sequence (P06756 891-1048 partner limits assumed): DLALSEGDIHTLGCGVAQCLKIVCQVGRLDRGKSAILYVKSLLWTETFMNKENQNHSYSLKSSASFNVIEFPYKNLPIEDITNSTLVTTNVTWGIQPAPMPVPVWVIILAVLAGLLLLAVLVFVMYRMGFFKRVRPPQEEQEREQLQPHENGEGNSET
T1 sequence (P05106 27-788): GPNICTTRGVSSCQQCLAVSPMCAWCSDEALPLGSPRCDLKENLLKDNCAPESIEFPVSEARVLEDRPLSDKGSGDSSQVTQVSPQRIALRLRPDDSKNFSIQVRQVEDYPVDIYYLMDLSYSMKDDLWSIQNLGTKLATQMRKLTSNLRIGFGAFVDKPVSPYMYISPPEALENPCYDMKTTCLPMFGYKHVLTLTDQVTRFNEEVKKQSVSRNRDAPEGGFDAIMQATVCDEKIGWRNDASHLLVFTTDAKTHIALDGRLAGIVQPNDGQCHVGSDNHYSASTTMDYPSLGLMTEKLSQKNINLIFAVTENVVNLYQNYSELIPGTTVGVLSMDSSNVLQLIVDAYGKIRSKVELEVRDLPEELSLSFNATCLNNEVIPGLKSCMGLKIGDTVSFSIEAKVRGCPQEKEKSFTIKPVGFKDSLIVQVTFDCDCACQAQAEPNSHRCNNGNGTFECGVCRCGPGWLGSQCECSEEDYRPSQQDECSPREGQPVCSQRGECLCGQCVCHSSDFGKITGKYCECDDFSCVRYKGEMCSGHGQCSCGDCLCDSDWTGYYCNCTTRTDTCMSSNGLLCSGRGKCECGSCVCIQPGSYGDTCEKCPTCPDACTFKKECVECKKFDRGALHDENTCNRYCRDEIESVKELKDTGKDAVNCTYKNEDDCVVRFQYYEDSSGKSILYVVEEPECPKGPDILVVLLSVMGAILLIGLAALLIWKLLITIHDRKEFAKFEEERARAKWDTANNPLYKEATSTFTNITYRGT

Row | IC50 [µM] | SMILES
1 | 0.135 | CCCCCCCCOC(=O)N[C@@H](CNC(=O)c1ccc(OCCNC2=NCCN2)cc1O)C(=O)O [Example 105, (2S)-3-({4-[2-(4,5-dihydro-1H-imidazol-2-ylamino)ethoxy]-2-hydroxybenzoyl}-amino)-2-{[(octyloxy)carbonyl]amino}propanoic acid]
2 | 1.1 | CCCCNC(=O)N[C@@H](CNC(=O)c1ccc(OCCNC2=NCCN2)cc1O)C(=O)O [Example 108, (2S)-2-{[(butylamino)carbonyl]amino}-3-({4-[2-(4,5-dihydro-1H-imidazol-2-ylamino)ethoxy]-2-hydroxybenzoyl}amino)propanoic acid]
3 | 0.251 | CCCCCCNC(=O)N[C@@H](CNC(=O)c1ccc(OCCNC2=NCCN2)cc1O)C(=O)O [Example 109, (2S)-3-({4-[2-(4,5-dihydro-1H-imidazol-2-ylamino)ethoxy]-2-hydroxybenzoyl}-amino)-2-{[(hexylamino)carbonyl]amino}propanoic acid]
4 | 0.544 | CCCCCCCCNC(=O)N[C@@H](CNC(=O)c1ccc(OCCNC2=NCCN2)cc1O)C(=O)O [Example 110, (2S)-3-({4-[2-(4,5-dihydro-1H-imidazol-2-ylamino)ethoxy]-2-hydroxybenzoyl}-amino)-2-{[(octylamino)carbonyl]amino}propanoic acid]
5 | 0.856 | C=CCNC(=O)N[C@@H](CNC(=O)c1ccc(OCCNC2=NCCN2)cc1O)C(=O)O [Example 111, (2S)-2-{[(allylamino)carbonyl]amino}-3-({4-[2-(4,5-dihydro-1H-imidazol-2-ylamino)ethoxy]-2-hydroxybenzoyl}amino)propanoic acid]
6 | 1.09 | O=C(NC1CCCCC1)N[C@@H](CNC(=O)c1ccc(OCCNC2=NCCN2)cc1O)C(=O)O [Example 112, (2S)-2-{[(cyclohexylamino)carbonyl]amino}-3-({4-[2-(4,5-dihydro-1H-imidazol-2-ylamino)ethoxy]-2-hydroxybenzoyl}amino)propanoic acid]
7 | 3.03 | O=C(NCc1ccccc1)N[C@@H](CNC(=O)c1ccc(OCCNC2=NCCN2)cc1O)C(=O)O [Example 113, (2S)-2-{[(benzylamino)carbonyl]amino}-3-({^4-[2-(4,5-dihydro-1H-imidazol-2-ylamino)ethoxy]-2-hydroxybenzoyl}amino)propanoic acid]
8 | 0.258 | COc1ccccc1NC(=O)N[C@@H](CNC(=O)c1ccc(OCCNC2=NCCN2)cc1O)C(=O)O [Example 115, (2S)-3-({4-[2-(4,5-dihydro-1H-imidazol-2-ylamino)ethoxy]-2-hydroxybenzoyl}-amino)-2-{[(2-methoxyanilino)carbonyl]amino}propanoic acid]
9 | 2.76 | O=C(Nc1ccccc1-c1ccccc1)N[C@@H](CNC(=O)c1ccc(OCCNC2=NCCN2)cc1O)C(=O)O [Example 116, (2S)-2-{[([1,1′-biphenyl]-2-ylamino)carbonyl]amino}-3-({4-[2-(4,5-dihydro-1H-imidazol-2-ylamino)ethoxy]-2-hydroxybenzoyl}amino)propanoic acid]
10 | 1.52 | O=C(NCCc1ccccc1)N[C@@H](CNC(=O)c1ccc(OCCNC2=NCCN2)cc1O)C(=O)O [Example 117, (2S)-3-({4-[2-(4,5-dihydro-1H-imidazol-2-ylamino)ethoxy]-2-hydroxybenzoyl}-amino)-2-({[(2-phenylethyl)amino]carbonyl}amino)propanoic acid]
11 | > 1 | CC(C)C(=O)N[C@@H](CNC(=O)c1ccc(OCCNC2=NCCN2)cc1O)C(=O)O [Example 118, (2S)-3-({4-[2-(4,5-dihydro-1H-imidazol-2-ylamino)ethoxy]-2-hydroxybenzoyl}-amino)-2-(isobutyrylamino)propanoic acid]
12 | > 1 | CCCC(=O)N[C@@H](CNC(=O)c1ccc(OCCNC2=NCCN2)cc1O)C(=O)O [Example 119, (2S)-2-(butyrylamino)-3-({4-[2-(4,5-dihydro-1H-imidazol-2-ylamino)ethoxy]-2-hydroxybenzoyl}amino)propanoic acid]
13 | > 1 | CCCCCC(=O)N[C@@H](CNC(=O)c1ccc(OCCNC2=NCCN2)cc1O)C(=O)O [Example 120, (2S)-3-({4-[2-(4,5-dihydro-1H-imidazol-2-ylamino)ethoxy]-2-hydroxybenzoyl}-amino)-2-(hexanoylamino)propanoic acid]
14 | > 1 | CCCCC(=O)N[C@@H](CNC(=O)c1ccc(OCCNC2=NCCN2)cc1O)C(=O)O [Example 121, (2S)-3-({4-[2-(4,5-dihydro-1H-imidazol-2-ylamino)ethoxy]-2-hydroxybenzoyl}-amino)-2-(pentanoylamino)propanoic acid]
15 | > 1 | CC(C)(C)CC(=O)N[C@@H](CNC(=O)c1ccc(OCCNC2=NCCN2)cc1O)C(=O)O [Example 122, (2S)-3-({4-[2-(4,5-dihydro-1H-imidazol-2-ylamino)ethoxy]-2-hydroxybenzoyl}-amino)-2-[(3,3-dimethylbutanoyl)amino]propanoic acid]
16 | > 1 | CC1(C)C(C(=O)N[C@@H](CNC(=O)c2ccc(OCCNC3=NCCN3)cc2O)C(=O)O)C1(C)C [Example 123, (2S)-3-({4-[2-(4,5-dihydro-1H-imidazol-2-ylamino)ethoxy]-2-hydroxybenzoyl}-amino)-2-{[(2,2,3,3-tetramethylcyclopropyl)carbonyl]amino}propanoic acid]
17 | 0.734 | O=C(CC12CC3CC(CC(C3)C1)C2)N[C@@H](CNC(=O)c1ccc(OCCNC2=NCCN2)cc1O)C(=O)O [Example 124, (2S)-2-{[2-(1-adamantyl)acetyl]amino}-3-({4-[2-(4,5-dihydro-1H-imidazol-2-ylamino)ethoxy]-2-hydroxybenzoyl}amino)propanoic acid]
18 | > 1 | C#CCCC(=O)N[C@@H](CNC(=O)c1ccc(OCCNC2=NCCN2)cc1O)C(=O)O [Example 125, (2S)-3-({4-[2-(4,5-dihydro-1H-imidazol-2-ylamino)ethoxy]-2-hydroxybenzoyl}-amino)-2-(pent-4-ynoylamino)propanoic acid]
19 | > 1 | O=C(NC[C@H](NC(=O)C1CCCCC1)C(=O)O)c1ccc(OCCNC2=NCCN2)cc1O [Example 126, (2S)-2-[(cyclohexylcarbonyl)amino]-3-({4-[2-(4,5-dihydro-1H-imidazol-2-ylamino)ethoxy]-2-hydroxybenzoyl}amino)propanoic acid]
20 | 0.955 | O=C(Cc1ccccc1)N[C@@H](CNC(=O)c1ccc(OCCNC2=NCCN2)cc1O)C(=O)O [Example 127, (2S)-3-({4-[2-(4,5-dihydro-1H-imidazol-2-ylamino)ethoxy]-2-hydroxybenzoyl}-amino)-2-[(2-phenylacetyl)amino]propanoic acid]
21 | > 1 | O=C(CCc1ccccc1)N[C@@H](CNC(=O)c1ccc(OCCNC2=NCCN2)cc1O)C(=O)O [Example 128, (2S)-3-({4-[2-(4,5-dihydro-1H-imidazol-2-ylamino)ethoxy]-2-hydroxybenzoyl}-amino)-2-[(3-phenylpropanoyl)amino]propanoic acid]
22 | 0.635 | O=C(CC1CCCCC1)N[C@@H](CNC(=O)c1ccc(OCCNC2=NCCN2)cc1O)C(=O)O [Example 129, (2S)-2-[(2-cyclohexylacetyl)amino]-3-({4-[2-(4,5-dihydro-1H-imidazol-2-ylamino)ethoxy]-2-hydroxybenzoyl}amino)propanoic acid]
23 | > 1 | O=C(/C=C/c1ccccc1)N[C@@H](CNC(=O)c1ccc(OCCNC2=NCCN2)cc1O)C(=O)O [Example 130, (2S)-3-({4-[2-(4,5-dihydro-1H-imidazol-2-ylamino)ethoxy]-2-hydroxybenzoyl}-amino)-2-{[(E)-3-phenylprop-2-enoyl]amino}propanoic acid]
24 | 0.405 | O=C(NC[C@H](NC(=O)c1ccccc1Cl)C(=O)O)c1ccc(OCCNC2=NCCN2)cc1O [Example 131, (2S)-2-[(2-chlorobenzoyl)amino]-3-({4-[2-(4,5-dihydro-1H-imidazol-2-ylamino)ethoxy]-2-hydroxybenzoyl}amino)propanoic acid]
25 | 0.963 | Cc1ccccc1C(=O)N[C@@H](CNC(=O)c1ccc(OCCNC2=NCCN2)cc1O)C(=O)O [Example 132, (2S)-3-({4-[2-(4,5-dihydro-1H-imidazol-2-ylamino)ethoxy]-2-hydroxybenzoyl}amino)-2-[(2-methylbenzoyl)amino]propanoic acid]
26 | > 1 | COc1ccccc1C(=O)N[C@@H](CNC(=O)c1ccc(OCCNC2=NCCN2)cc1O)C(=O)O [Example 133, (2S)-3-({4-[2-(4,5-dihydro-1H-imidazol-2-ylamino)ethoxy]-2-hydroxybenzoyl}-amino)-2-[(2-methoxybenzoyl)amino]propanoic acid]
27 | > 1 | O=C(N[C@@H](CNC(=O)c1ccc(OCCNC2=NCCN2)cc1O)C(=O)O)c1ccc(Cl)cc1 [Example 134, (2S)-2-[(4-chlorobenzoyl)amino]-3-({4-[2-(4,5-dihydro-1H-imidazol-2-ylamino) -ethoxy]-2-hydroxybenzoyl}amino)propanoic acid]
28 | > 1 | Cc1ccc(C(=O)N[C@@H](CNC(=O)c2ccc(OCCNC3=NCCN3)cc2O)C(=O)O)cc1 [Example 135, (2S)-3-({4-[2-(4,5-dihydro-1H-imidazol-2-ylamino)ethoxy]-2-hydroxybenzoyl}-amino)-2-[(4-methylbenzoyl)amino]propanoic acid]
29 | > 1 | COc1ccc(C(=O)N[C@@H](CNC(=O)c2ccc(OCCNC3=NCCN3)cc2O)C(=O)O)cc1 [Example 136, (2S)-3-({4-[2-(4,5-dihydro-1H-imidazol-2-ylamino)ethoxy]-2-hydroxybenzoyl}-amino)-2-[(4-methoxybenzoyl)amino]propanoic acid]

Row | SMILES | IC50 [µM]
30 | CCCCOC(=O)N[C@@H](CNC(=O)c1ccc(OCCNC2=NCCN2)cc1O)C(=O)O [Example 106, (2S)-2-[(butoxycarbonyl)amino]-3-({4-[2-(4,5-dihydro-1H-imidazol-2-ylamino)ethoxy]-2-hydroxybenzoyl}amino)propanoic acid] | 0.114
31 | CC(C)COC(=O)N[C@@H](CNC(=O)c1ccc(OCCNC2=NCCN2)cc1O)C(=O)O [Example 107, (2S)-3-({4-[2-(4,5-dihydro-1H-imidazol-2-ylamino)ethoxy]-2-hydroxybenzoyl}-amino)-2-[(isobutoxycarbonyl)amino]propanoic acid] | 0.13
